According to patent US20080124376A1, “OCULAR DEVICES AND METHODS OF MAKING AND USING THEREOF” (NOVARTIS AG, priority 2006, published 2008):
Structures can show the parent of a compound that is named as a salt. One block for each compound: values may come before it.

Columns and labels:
Type in all cases: physicochemical
[1] = Heat stability of Nelfilcon lens with hyaluronan; settings: lens in 6.5 mg/mL hyaluronan solution, pH 11, 120° C. for 40 minutes; FIG. 3
Description: Heat stability studies were also performed on the membranes. A lens prepared from 6.5 mg/mL loading of 1 M Da hyaluronan was placed in a tube of 6.5 mg/mL solution of hyaluronan at a pH of 11. The tube was sealed with a total volume of 0.8 mL, and the solution was heated at 120° C. for 40 minutes.

[2] = Release of hyaluronan from Nelfilcon matrix in artificial lacrimal solution
Description: Using the techniques above, a mixture of Nelfilcon and varying amounts of hyaluronan was polymerised to form a membrane. The amount of hyaluronan loaded into the Nelfilcon macromer was 2, 6.5, and 40 mg hyaluronan/g nelfilcon (30% by weight aqueous solution). The hyaluronan used was approximately 50 kDa, 100 kDa, and 1 million Da.
The release of hyaluronan from the membrane was investigated by varying the amount and length of the hyaluronan incorporated into the matrix. Release studies were performed by placing each lens in a solution of 5 mL of artificial lacrimal solution at 35° C.

[3] = Passive diffusion release from drug-loaded lens / Nelfilcon membrane discs
Description: Cromolyn sodium was strongly absorbed by the […] matrix. The amount absorbed from a 4% concentration (equivalent to an ophthalmic solution) soak solution was on the order of 1 mg. Approximately 100 μg was released passively during a short burst period, leaving some 900 μg for release by trigger mechanism. […] A mixture of Nelfilcon and cromolyn sodium was polymerised to form a membrane, and 1.5 cm diameter discs were cut out and the release profile examined. The release profile of the directly loaded and the absorbed drug described above were compared. Direct loading levels were much lower (approx. 20 μg per lens) than the 1 mg per lens absorbed from a 4% solution. […] Ketotifen fumarate was used at much lower levels in ophthalmic solution (0.025%) than cromolyn sodium, which was reflected in the uptake experiments. Ketotifen fumarate was absorbed from a 0.025% solution into the lens at a level of 35 μg, with a modest amount released during a short burst period, leaving approximately 30 μg retained in the matrix. This is a very significant payload in relation to daily requirements. […] A mixture of Nelfilcon and ketotifen fumarate was polymerised to form a membrane, and 1.5 cm diameter discs were cut out and the release profile examined. The release profile of the directly loaded and the absorbed drug described above were compared. As with cromolyn sodium, the matrix distribution of the drug loaded directly into the polymer matrix produced differences in release behaviour compared to the absorbed drug.

[4] = Trigger release in vortex eye model (in vitro in-eye release model); settings: for triggered release: in eye model (vortex); for trigger release following passive diffusion: drug loaded via absorption into Dailies matrix
Description: The vortex model is the in vitro in-eye release model described in commonly owned copending US Patent Application Publication No. 2006/0251696 A1 (herein incorporated by reference in its entirety). The experiment is carried out as follows. A contact lens is first blotted dry and immediately is carefully placed into 100 microliter of an extraction medium in an tube (e.g., a centrifuge tube, a scintillation vial, or preferably an Eppendorf microtube) and the microtube is agitated for fifteen seconds using, e.g., a Vibrex vortex mixer. At the end of one hour period, the tube is again agitated using, e.g., a Vibrex vortex mixer, for a further fifteen seconds. The extraction medium is removed from the Eppendorf microtube and 100 microliter of a fresh extraction medium is added. Extraction samples are stored at 25° C. between agitation procedures. The concentration of a guest material extracted out of a lens can be determined according to any methods known to a person skilled in the art.

[5] = Drug uptake via absorption into the Dailies matrix from soak solution
Description: Cromolyn sodium was strongly absorbed by the Dailies matrix. The amount absorbed from a 4% concentration (equivalent to an ophthalmic solution) soak solution was on the order of 1 mg. Approximately 100 μg was released passively during a short burst period, leaving some 900 μg for release by trigger mechanism.
Ketotifen fumarate was used at much lower levels in ophthalmic solution (0.025%) than cromolyn sodium, which was reflected in the uptake experiments. Ketotifen fumarate was absorbed from a 0.025% solution into the lens at a level of 35 μg, with a modest amount released during a short burst period, leaving approximately 30 μg retained in the matrix. This is a very significant payload in relation to daily requirements.

[6] = Aqueous passive and agitated release from ASM981-loaded Nelfilcon membrane; settings: membrane of 1% ASM981 in Nelfilcon
Description: The addition of Pimecrolimus (SDZ ASM981), which is synthesized by Novartis Pharma, in solution form to Nelfilcon macromer increases the liquid content of the macromer. Simple addition of the ASM981 consequently diluted the macromer and photopolymerisation produced wet structurally incoherent product. A membrane composed of 1% ASM981 was prepared by adding 1 g of the ASM981 solution to 5 g of nelfilcon macromer, vortexing for approximately 5 minutes, and removing the lid of the vial to remove excess water. The mass of the ASM981-loaded macromer was allowed to return to its original 5 g. This was conveniently achieved by leaving the mixture overnight on a flatbed shaker under a nitrogen blanket. The mixture was then placed in a membrane mould and polymerised under a static UV lamp. The mixture was successfully polymerised to form a coherent membrane, and the resultant membrane was opaque in appearance.

[7] = Release of Rose Bengal from Nelfilcon lenses in PBS and lysozyme solution
[8] = Direct loading of drug into the Nelfilcon macromer (loading level); settings: drug loaded directly into Nelfilcon macromer
Description: A mixture of Nelfilcon and cromolyn sodium was polymerised to form a membrane, and 1.5 cm diameter discs were cut out and the release profile examined. The release profile of the directly loaded and the absorbed drug described above were compared. Direct loading levels were much lower (approx. 20 μg per lens) than the 1 mg per lens absorbed from a 4% solution.

[9] = drug loaded directly into Nelfilcon macromer

- effect of increasing the amount of hyaluronan on release ([2]; 2, 6.5, 40 mg hyaluronan/g nelfilcon, FIG. 2): significantly affects the release
Compound: hyaluronan

- aqueous passive and agitated release [6]: no release was observed
Compound: CC[C@@H]1/C=C(\C)C[C@H](C)C[C@H](OC)[C@H]2O[C@@](O)(C(=O)C(=O)N3CCCC[C@H]3C(=O)O[C@H](/C(C)=C/[C@@H]3CC[C@H](Cl)[C@H](OC)C3)[C@H](C)[C@@H](O)CC1=O)[C@H](C)C[C@@H]2OC [ASM981, Pimecrolimus]

- amount released passively during a short burst period ([3]; drug absorbed into Dailies matrix from 4% solution): Approximately 100 μg
- amount left for release by trigger mechanism ([3]; drug absorbed into Dailies matrix from 4% solution, after burst): ~900 µg
- passive release ([3]; drug loaded directly into Nelfilcon macromer, 1.5 cm discs): virtually zero passive release
- triggered release [4, 9]: very significant triggered release
- trigger release following passive diffusion ([4]; vortex eye model): significant release
- direct loading level [8]: approx. 20 μg per lens
- amount absorbed from soak solution ([5]; 4% concentration soak solution): ~1 mg
Compound: O=C(O)c1cc(=O)c2c(OCC(O)COc3cccc4oc(C(=O)O)cc(=O)c34)cccc2o1 [Cromolyn sodium]

Further lines, the compound ahead of its results:

Compound: hyaluronan [1 M Da hyaluronan]
- heat stability: release over time after heating [1]: release curve is similar to that of the release of hyaluronan from the matrix that is not heated
- release pattern (release rate) ([2]; loading 6.5 mg HA/g nelfilcon, 5 mL artificial lacrimal solution, 35° C., FIG. 1): relatively constant release rate from 2 to 48 hours

Compound: CN1CCC(=C2c3ccccc3CC(=O)c3sccc32)CC1 [Ketotifen fumarate]
- amount released during a short burst period ([3]; drug absorbed into Dailies matrix from 0.025% solution): modest amount
- amount retained in the matrix ([3]; drug absorbed into Dailies matrix from 0.025% solution, after burst): approximately 30 μg
- time for passive diffusion to come to equilibrium [3, 9]: three
- effect of albumin on trigger release ([4]; drug absorbed into Dailies matrix, albumin): little effect
- effect of positively charged proteins such as lysozyme on trigger release ([4]; drug absorbed into Dailies matrix, lysozyme): significant enhanced effect
- triggered release [4, 9]: very effective further release
- effect of positively charged tear protein (lysozyme) on trigger release ([4]; drug loaded directly into Nelfilcon macromer, vortex eye model): enhanced
- trigger release following passive diffusion ([4]; vortex eye model): enhanced triggered release susceptibility
- amount absorbed into the lens ([5]; 0.025% solution): 35 µg

Compound: O=C([O-])c1c(Cl)c(Cl)c(Cl)c(Cl)c1-c1c2cc(I)c(=O)c(I)c-2oc2c(I)c([O-])c(I)cc12.[Na+].[Na+] [Rose Bengal]
- stability of loaded lens in saline solutions ([7]; Nelfilcon lens loaded with Rose Bengal): stable in saline solutions for extended periods of time
- release in PBS solution with no lysozyme ([7]; Nelfilcon lens, approximately minute 150, FIG. 4): little to no Rose Bengal was released
- release in a solution of lysozyme ([7]; Nelfilcon lens, from minute zero, FIG. 4): released steadily
